Data published in US20030191051A1, “Combination therapy for the treatment of bacterial infections” (priority 2002, published 2003).

Experiment: Combination therapy of antibiotic and COX-2 selective inhibitor administered to a mammal to treat or prevent a bacterial infection
Settings: pharmaceutically effective amount, administered together with a pharmaceutically effective amount of linezolid to a mammal

Compound: CS(=O)(=O)c1ccc(C2=C(c3ccccc3)C(=O)OC2)cc1 [rofecoxib]
- side effects resulting from the administration of the antibiotic: reduced side effects
